According to ChEMBL document CHEMBL1150533, “Inhibitors of the adenovirus type 2 proteinase based on substrate-like tetrapeptide nitriles” (Bioorg Med Chem Lett, 1995):
Peptide text beside a SMILES is read from it. * marks the point of attachment. Cbz = O=C(OCc1ccccc1)*; Boc = CC(C)(C)OC(=O)*; N(Me)OMe = CON(C)*; OtBu = CC(C)(C)O*; NMeEt = CCN(C)*

Key:
Format in all cases: functional
[1] = test system: Human adenovirus 2; experiment: Compound was tested for inhibition of Adenovirus type 2 proteinase; details: Human mastadenovirus C
[2] = test system: Human adenovirus 2; experiment: Inhibitory activity against Adenovirus type 2 proteinase; set-up: concentration or dose not given beside the values
[3] = test system: Human adenovirus 2; experiment: Compound was tested for noncompetitive inhibition of Adenovirus type 2 proteinase
[4] = test system: Human adenovirus 2; experiment: Compound was tested for inhibition of Adenovirus type 2 proteinase; showed no inhibitory activity; set-up: concentration or dose not given beside the values
[5] = test system: Human adenovirus 2; experiment: Compound was tested for inhibition of Adenovirus type 2 proteinase; Not very soluble and inactive at maximum soluble concentration
[6] = test system: Human adenovirus 2; experiment: Inhibitory activity against Adenovirus type 2 proteinase; showed no inhibitory activity

Compound | Inhibition [2] [%] | Inhibition [4] [%] | also measured
CC(C)C[C@H](NC(=O)C(F)(F)F)C(=O)N[C@@H](C)C(=O)NCC(=O)NCC#N | 50 | – | IC50 [1]: 6900 µM
CC(C)C[C@H](NC(=O)OCc1ccccc1)C(=O)N[C@@H](C)C(=O)NCC(=O)NCC#N | 95 | – | IC50 [1]: 10 µM; Ki [3]: 16 µM
COC(CNC(=O)CNC(=O)[C@H](C)NC(=O)[C@H](CC(C)C)NC(=O)OCc1ccccc1)OC | 59 | – | IC50 [1]: 400 µM; Ki [3]: 380 µM
COC(CNC(=O)CNC(=O)[C@H](C)NC(=O)[C@H](CC(C)C)NC(=O)OC(C)(C)C)OC | 59 | – | IC50 [1]: 1800 µM
C[C@H](NC(=O)C(F)(F)F)C(=O)NCC(=O)NCC#N | 5 | – | –
N#CCNC(=O)CNC(=O)C(F)(F)F | – | 0 | –
Cl.N#CCN | – | 0 | –
CC(C)C[C@H](NC(=O)OC(C)(C)C)C(=O)N[C@@H](C)C(=O)NCC(=O)NCC(=O)OC(C)(C)C (Boc-LAGG-OtBu) | 40 | – | –
CC(C)C[C@H](NC(=O)OCc1ccccc1)C(=O)N[C@@H](C)C(=O)NCC(=O)NCC(N)=O (Cbz-LAGG-NH2) | – | – | Inhibition [5]: 0%
CNC(=O)CNC(=O)CNC(=O)[C@H](C)NC(=O)[C@H](CC(C)C)NC(=O)OCc1ccccc1 (Cbz-LAGG-NHMe) | – | – | Inhibition [5]: 0%
CC(C)C[C@H](NC(=O)OCc1ccccc1)C(=O)N[C@@H](C)C(=O)NCC(=O)NCC(=O)N(C)C (Cbz-LAGG-NMe2) | – | 0 | –
CCN(C)C(=O)CNC(=O)CNC(=O)[C@H](C)NC(=O)[C@H](CC(C)C)NC(=O)OCc1ccccc1 (Cbz-LAGG-NMeEt) | – | 0 | –
CCOC(=O)CNC(=O)CNC(=O)[C@H](C)NC(=O)[C@H](CC(C)C)NC(=O)OCc1ccccc1 (Cbz-LAGG-OEt) | 67 | – | –
CC(C)C[C@H](NC(=O)OCc1ccccc1)C(=O)N[C@@H](C)C(=O)NCC(=O)NCC(=O)O (Cbz-LAGG-OH) | – | – | Inhibition [6]: 0%
COC(=O)CNC(=O)CNC(=O)[C@H](C)NC(=O)[C@H](CC(C)C)NC(=O)OCc1ccccc1 (Cbz-LAGG-OMe) | 72 | – | –
CON(C)C(=O)CNC(=O)CNC(=O)[C@H](C)NC(=O)[C@H](CC(C)C)NC(=O)OCc1ccccc1 (Cbz-LAGG-{N(Me)OMe}) | – | 0 | –
CC(C)C[C@H](N)C(=O)N[C@@H](C)C(=O)NCC(=O)NCC(N)=O (H-LAGG-NH2) | – | 0 | –
CNC(=O)CNC(=O)CNC(=O)[C@H](C)NC(=O)[C@@H](N)CC(C)C (H-LAGG-NHMe) | – | 0 | –
